Here are results for one molecule from patent US20060122194A1, “Tablet comprising efletirizine and pseudoephedrine” (UCB Farchim S.A., priority 2002, published 2006).

SMILES strings stand for the structures.

A short description of series [1]: stability of the tablet / of efletirizine with pseudoephedrine. It counts as physicochemical. Particulars: efletirizine and pseudoephedrine formulated together in the same segment.
The target in series [2] is histamine H1-receptor (Homo sapiens, UniProt P35367). As to conditions: in vitro; cited from earlier work.
Sequence of histamine H1-receptor (P35367 whole entry, species assumed): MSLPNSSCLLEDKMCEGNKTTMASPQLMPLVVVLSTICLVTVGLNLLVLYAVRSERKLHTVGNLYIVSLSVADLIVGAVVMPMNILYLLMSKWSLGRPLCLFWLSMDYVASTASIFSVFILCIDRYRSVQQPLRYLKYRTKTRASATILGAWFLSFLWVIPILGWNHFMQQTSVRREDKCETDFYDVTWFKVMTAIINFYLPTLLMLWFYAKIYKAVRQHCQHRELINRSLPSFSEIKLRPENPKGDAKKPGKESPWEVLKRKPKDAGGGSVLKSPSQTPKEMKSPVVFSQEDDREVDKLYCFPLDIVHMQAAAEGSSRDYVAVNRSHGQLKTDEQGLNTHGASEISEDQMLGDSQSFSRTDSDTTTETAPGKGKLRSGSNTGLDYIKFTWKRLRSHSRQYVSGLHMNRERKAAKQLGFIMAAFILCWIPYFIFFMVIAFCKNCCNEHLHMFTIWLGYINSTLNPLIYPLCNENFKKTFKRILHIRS

`O=C(O)COCCN1CCN(C(c2ccc(F)cc2)c2ccc(F)cc2)CC1` [Efletirizine, 2-{2-[4-[bis(4-fluorophenyl)methyl)-1-piperazinyl]ethoxy}acetic acid]: the degradation of efletirizine entry in series [1] is listed as “a degradation of efletirizine appeared”. Moreover, in series [2], the “affinity and selectivity for H1-receptors” value was “high affinity and selectivity”.
